According to patent US8263610B2, “Substituted imidazolyl-5,6-dihydrobenzo[N]isoquinoline compounds” (ArQule, Inc., priority 2008, dated 2012):

Key:
Assay in all cases: MTS assay, inhibition of cell growth
Assay type in all cases: cell-based
[1] = system: Kato III cells; settings: Homo sapiens, compound at 10 μM, 72 hours
Method: (§1) MDA-MB-231, DLD-1, Kato III NCI-H1299, PACA-2 cells, were maintained at 37° C., 5% CO2 in DMEM media supplemented with 10% fetal bovine serum, penicillin/streptomycin and fungizone (Invitrogen). Cells were seeded into 96-well tissue culture plates at 3000 per well and cultured at 37° C. for 18 hours. Test compounds were dissolved and diluted to 300× in DMSO then further diluted 1:40 in DMEM before addition to cells (1:7.5 dilution). Cells were incubated with test compounds for 72 hours followed by incubation with tetrazolium compound (3-(4,5-dimethylthiazol-2-yl)-5-(3-carboxymethoxyphenyl)-2-(4-sulfophenyl)-2H-tetrazolium, inner salt; MTS) and the electron coupling reagent, phenazine methosulfate (PMS) for 4 hours. […] The ability of compounds to inhibit cell growth in this assay is correlated with the reduction of dehydrogenase enzyme activity found in metabolically active cells. The measurement of the absorbance of the formazan was assessed using an ENVISION™ (Perkin Elmer) microplate reader at 492 nm.

[2] = system: MDA-MB-231 cells; settings: Homo sapiens, compound at 10 μM, 72 hours
Method: as §1

[3] = system: PACA-2 cells; settings: compound at 10 μM, 72 hours
Method: as §1

[4] = system: DLD-1 cells; settings: Homo sapiens, compound at 10 μM, 72 hours
Method: as §1

[5] = system: NCI-H1299 cells; settings: Homo sapiens, compound at 10 μM, 72 hours
Method: as §1

Compound | inhibition at 10 µM [1] [%] | inhibition at 10 µM [2] [%] | inhibition at 10 µM [3] [%] | inhibition at 10 µM [4] [%] | inhibition at 10 µM [5] [%]
O=C(Nc1cccc(Oc2ccccc2)c1)N1CCc2c(cnc3[nH]nc(Br)c23)C1 [1-bromo-N-(3-phenoxyphenyl)-3,6,8,9-tetrahydro-7H-pyrazolo[3,4-c][2,7]naphthyridine-7-carboxamide] | 75 to 100 | 25 to 49 | 50 to 74 | 75 to 100 | 50 to 74
Cc1ccc(C)c(S(=O)(=O)NC2CCc3c(cnc4[nH]ncc34)C2)c1 (stereo not shown) [2,5-dimethyl-N-(6,7,8,9-tetrahydro-3H-pyrazolo[3,4-c]isoquinolin-7-yl)benzenesulfonamide] | 75 to 100 | 75 to 100 | 75 to 100 | 75 to 100 | 75 to 100
COc1ccc(Cn2ncc3c4c(cnc32)CCc2[nH]c(=O)ccc2-4)cc1 [3-(4-methoxybenzyl)-3,6,7,8-tetrahydro-9H-pyrazolo[4,3-a][3,7]phenanthrolin-9-one] | 75 to 100 | 75 to 100 | 75 to 100 | 75 to 100 | 75 to 100
CNc1ncc2c(n1)CCc1cnc3c(cnn3Cc3ccc(OC)cc3)c1-2 [3-(4-methoxybenzyl)-N-methyl-6,7-dihydro-3H-pyrazolo[4′,3′:5,6]pyrido[4,3-f]quinazolin-9-amine] | 75 to 100 | 75 to 100 | 75 to 100 | 75 to 100 | < 24
Nc1nc(N2CCc3c(cnc4[nH]ncc34)C2)c2cn[nH]c2n1 [4-(3,6,8,9-tetrahydro-7H-pyrazolo[3,4-c][2,7]naphthyridin-7-yl)-1H-pyrazolo[3,4-d]pyrimidin-6-amine] | 75 to 100 | 50 to 74 | 75 to 100 | 75 to 100 | 25 to 49
c1nc2[nH]ncc2c2c1CNCC2 [6,7,8,9-tetrahydro-3H-pyrazolo[3,4-c][2,7]naphthyridine] | 25 to 49 | 75 to 100 | 75 to 100 | 75 to 100 | 25 to 49
c1cc2c(s1)CCc1cnc3[nH]ncc3c1-2 [6,7-dihydro-3H-pyrazolo[3,4-c]thieno[3,2-f]isoquinoline] | 75 to 100 | 75 to 100 | 75 to 100 | 75 to 100 | 75 to 100
Nc1nc(N)nc(N2CCc3c(cnc4[nH]ncc34)C2)n1 [6-(3,6,8,9-tetrahydro-7H-pyrazolo[3,4-c][2,7]naphthyridin-7-yl)-1,3,5-triazine-2,4-diamine] | 75 to 100 | 75 to 100 | 75 to 100 | 75 to 100 | 75 to 100
Nc1nc(N2CCc3c(cnc4[nH]ncc34)C2)c2nc[nH]c2n1 [6-(3,6,8,9-tetrahydro-7H-pyrazolo[3,4-c][2,7]naphthyridin-7-yl)-9H-purin-2-amine] | 75 to 100 | 75 to 100 | 75 to 100 | 75 to 100 | 75 to 100
Cc1cc(NC2CCc3c(cnc4[nH]ncc34)C2)nc(N)n1 (stereo not shown) [6-methyl-N~4~-(6,7,8,9-tetrahydro-3H-pyrazolo[3,4-c]isoquinolin-7-yl)pyrimidine-2,4-diamine] | 75 to 100 | 75 to 100 | 75 to 100 | 75 to 100 | 25 to 49
Clc1ccccc1C1Cc2cnc3[nH]nc(-c4cnn(C5CCNCC5)c4)c3c2-c2ccccc21 (stereo not shown) [7-(2-chlorophenyl)-1-(1-piperidin-4-yl-1H-pyrazol-4-yl)-6,7-dihydro-3H-benzo[f]pyrazolo[3,4-c]isoquinoline] | 75 to 100 | 75 to 100 | 75 to 100 | 75 to 100 | 75 to 100
O=S(=O)(c1cccs1)N1CCc2c(cnc3[nH]ncc23)C1 [7-(2-thienylsulfonyl)-6,7,8,9-tetrahydro-3H-pyrazolo[3,4-c][2,7]naphthyridine] | 75 to 100 | 75 to 100 | 75 to 100 | 75 to 100 | 75 to 100
CS(=O)(=O)N1CCc2c(cnc3[nH]ncc23)C1 [7-(methylsulfonyl)-6,7,8,9-tetrahydro-3H-pyrazolo[3,4-c][2,7]naphthyridine] | 75 to 100 | 75 to 100 | 75 to 100 | 75 to 100 | 75 to 100
COc1ccc(S(=O)(=O)N2CCc3c(cnc4[nH]ncc34)C2)cc1OC [7-[(3,4-dimethoxyphenyl)sulfonyl]-6,7,8,9-tetrahydro-3H-pyrazolo[3,4-c][2,7]napthyridine] | 75 to 100 | 75 to 100 | 75 to 100 | 75 to 100 | 75 to 100
COc1ccc(CN2CCN(C(=O)N3CCc4c(cnc5[nH]ncc45)C3)CC2)cc1 [7-{[4-(4-methoxybenzyl)piperazin-1-yl]carbonyl}-6,7,8,9-tetrahydro-3H-pyrazolo[3,4-c][2,7]naphthyridine] | 75 to 100 | 75 to 100 | 75 to 100 | 75 to 100 | < 24
Clc1ccccc1CN1CCN(c2ncc3c(n2)CCc2cnc4[nH]ncc4c2-3)CC1 [9-[4-(2-chlorobenzyl)piperazin-1-yl]-6,7-dihydro-3H-pyrazolo[4′3′:5,6]pyrido[4,3-f]quinazoline] | 75 to 100 | 75 to 100 | 75 to 100 | 75 to 100 | 75 to 100
CN(C)CCNC(C(=O)N1CCc2c(cnc3[nH]nc(-c4ccccc4)c23)C1)c1ccccc1 (stereo not shown) [N,N-dimethyl-N′-[2-oxo-1-phenyl-2-(1-phenyl-3,6,8,9-tetrahydro-7H-pyrazolo[3,4-c][2,7]napthyridin-7-yl)ethyl]ethane-1,2-diamine] | 75 to 100 | 75 to 100 | 75 to 100 | 75 to 100 | 75 to 100
O=C(NCCc1cccc(Cl)c1)c1cccc(NC(=O)N2CCc3c(cnc4[nH]ncc34)C2)c1 [N-(3-{[2-(3-chlorophenyl)ethyl]carbamoyl}phenyl)-3,6,8,9-tetrahydro-7H-pyrazolo[3,4-c][2,7]naphthyridine-7-carboxamide] | 75 to 100 | 75 to 100 | 75 to 100 | 75 to 100 | 25 to 49
c1nc2[nH]ncc2c2c1CCc1nc(NCC3CCCCCC3)ncc1-2 [N-(cycloheptylmethyl)-6,7-dihydro-3H-pyrazolo[4′,3′:5,6]pyrido[4,3-f]quinazolin-9-amine] | 75 to 100 | 75 to 100 | 75 to 100 | 75 to 100 | 75 to 100
O=C(NCC1CCCCC1)N1CCc2c(cnc3[nH]ncc23)C1 [N-(cyclohexylmethyl)-3,6,8,9-tetrahydro-7H-pyrazolo[3,4-c][2,7]naphthyridine-7-carboxamide] | 75 to 100 | 75 to 100 | 75 to 100 | 75 to 100 | 75 to 100
